# Laboratory results from patent US10294202B2, “Pyrrolidinones as herbicides” (FMC Corporation, priority 2013, dated 2019).
# Assays:
# sedge, umbrella = assay: Test B flooded paddy test; format: in vivo, Cyperus difformis; conditions: 500 g ai/ha, Flood; scale of 0 to 100 where 0 is no effect and 100 is complete control
# Outline: (§1)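 2-leaf plants; flood 3 cm over soil; compound into paddy water; depth held. Greenhouse 13–15 d. Visual rating vs controls, 0 (no effect) to 100 (complete control); dash = not tested.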
# ryegrass, Italian = assay: Test C pre-/postemergence herbicide test; format: in vivo, Lolium multiflorum
# Outline: (§2)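 Plants grown and held in a greenhouse for 13 to 15 days post-spray, then rated 0–100 by visual comparison with controls. Pre treatments targeted seeds in loam and sand; post treatments targeted 1- to 4-leaf plants in peat-based potting medium.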
# johnsongrass = assay: Test C pre-/postemergence herbicide test; format: in vivo, Sorghum halepense
# Outline: as §2
# rice = assay: Test B flooded paddy test; format: in vivo, Oryza sativa; conditions: 500 g ai/ha, Flood; scale of 0 to 100 where 0 is no effect and 100 is complete control
# Outline: as §1
# oilseed rape = assay: Test C pre-/postemergence herbicide test; format: in vivo, Brassica napus
# Outline: as §2
# pigweed = assay: Test C pre-/postemergence herbicide test; format: in vivo, Amaranthus retroflexus
# Outline: as §2
# ducksalad = assay: Test B flooded paddy test; format: in vivo, Heteranthera limosa; conditions: 500 g ai/ha, Flood; scale of 0 to 100 where 0 is no effect and 100 is complete control
# Outline: as §1
# wheat = assay: Test A pre-/postemergence herbicide test; format: in vivo, Triticum aestivum; conditions: Postemergence
# Outline: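 Approximately 10 days after treatment in the greenhouse, plants were compared with untreated controls and given a 0–100 visual injury rating. Applications: preemergence directed soil spray; postemergence on 2–10 cm plants at the one- to two-leaf stage.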
# ragweed = assay: Test C pre-/postemergence herbicide test; format: in vivo, Ambrosia elatior
# Outline: as §2
# corn = assay: Test C pre-/postemergence herbicide test; format: in vivo, Zea mays
# Outline: as §2
# nutsedge, yellow = assay: Test C pre-/postemergence herbicide test; format: in vivo, Cyperus esculentus
# Outline: as §2
# soybean = assay: Test C pre-/postemergence herbicide test; format: in vivo, Glycine max
# Outline: as §2
# barnyardgrass = assay: Test B flooded paddy test; format: in vivo, Echinochloa crus-galli; conditions: 500 g ai/ha, Flood; scale of 0 to 100 where 0 is no effect and 100 is complete control
# Outline: as §1
# [1] = Postemergence, 31 g ai/ha, scale 0 to 100 (0 no effect, 100 complete control)
# [2] = Postemergence, 62 g ai/ha, scale 0 (no effect) to 100 (complete control)
# [3] = Postemergence, 125 g ai/ha, scale 0 to 100 (0 no effect, 100 complete control)
# [4] = Postemergence, 250 g ai/ha, scale 0 to 100 (0 no effect, 100 complete control)
# [5] = Preemergence, 62 g ai/ha, scale 0 to 100 (0 no effect, 100 complete control)
# [6] = Preemergence, 125 g ai/ha, scale 0 to 100
# [7] = Preemergence, 31 g ai/ha, scale 0 to 100, 0 is no effect and 100 is complete control
# [8] = 125 g ai/ha, visual rating on 0 to 100 scale (0 no effect, 100 complete control), approx. 10 days
# [9] = 500 g ai/ha, 0 to 100 scale (0 no effect, 100 complete control)
# [10] = Preemergence, 125 g ai/ha, scale 0 to 100 (0 no effect, 100 complete control)
smiles,measurement,setting,value
O=C1NCC(c2cccc(C(F)(F)F)c2)C1C(=O)Nc1ccc(F)c(F)c1F (centres unmarked) [Compound 315],"Plant response rating, Sedge, Umbrella","sedge, umbrella",0
same,"Plant response rating, Ryegrass, Italian","ryegrass, Italian; [1]",0
same,"Plant response rating, Ryegrass, Italian","ryegrass, Italian; [2]",5
same,"Plant response rating, Ryegrass, Italian","ryegrass, Italian; [3]",15
same,"Plant response rating, Ryegrass, Italian","ryegrass, Italian; [4]",45
same,"Ryegrass, Italian plant response rating","ryegrass, Italian; [5]",50
same,"Plant response rating, Ryegrass, Italian","ryegrass, Italian; [6]",50
same,"Plant response rating (scale of 0 to 100), Ryegrass, Italian","ryegrass, Italian; Preemergence, 250 g ai/ha",50
same,"Plant response rating, Johnsongrass",johnsongrass; [1],0
same,"Plant response rating, Johnsongrass",johnsongrass; [2],0
same,"Plant response rating, Johnsongrass",johnsongrass; [3],0
same,"Plant response rating, Johnsongrass",johnsongrass; [4],35
same,Johnsongrass plant response rating,johnsongrass; [7],75
same,Johnsongrass plant response rating,johnsongrass; [5],85
same,"Plant response rating, Johnsongrass",johnsongrass; [6],85
same,"Plant response rating (scale of 0 to 100), Johnsongrass","johnsongrass; Preemergence, 250 g ai/ha",90
same,"Plant response rating, Rice",rice,15
same,"Plant response rating, Oilseed Rape",oilseed rape; [1],0
same,"Plant response rating, Oilseed Rape",oilseed rape; [2],0
same,"Plant response rating, Oilseed Rape",oilseed rape; [3],0
same,"Plant response rating, Oilseed Rape",oilseed rape; [4],10
same,Oilseed Rape plant response rating,oilseed rape; [7],5
same,Oilseed Rape plant response rating,oilseed rape; [5],30
same,"Plant response rating, Oilseed Rape",oilseed rape; [6],85
same,"Plant response rating (scale of 0 to 100), Oilseed Rape","oilseed rape; Preemergence, 250 g ai/ha",80
same,"Plant response rating, Pigweed",pigweed; [1],25
same,"Plant response rating, Pigweed",pigweed; [2],65
same,"Plant response rating, Pigweed",pigweed; [3],65
same,"Plant response rating, Pigweed",pigweed; [4],80
same,Pigweed plant response rating,pigweed; [7],45
same,Pigweed plant response rating,pigweed; [5],60
same,"Plant response rating, Pigweed",pigweed; [6],75
same,"Plant response rating (scale of 0 to 100), Pigweed","pigweed; Preemergence, 250 g ai/ha",85
same,"Plant response rating, Ducksalad",ducksalad,100
same,"Plant response rating, Wheat",wheat; [8],60
same,"Plant response rating, Wheat",wheat; [9],70
same,"Plant response rating, Ragweed",ragweed; [1],0
same,"Plant response rating, Ragweed",ragweed; [2],20
same,"Plant response rating, Ragweed",ragweed; [3],65
same,"Plant response rating, Ragweed",ragweed; [4],70
same,Ragweed plant response rating,ragweed; [5],20
same,"Plant response rating, Ragweed",ragweed; [6],50
same,"Plant response rating (scale of 0 to 100), Ragweed","ragweed; Preemergence, 250 g ai/ha",80
same,"Plant response rating, Corn",corn; [1],0
same,"Plant response rating, Corn",corn; [2],0
same,"Plant response rating, Corn",corn; [3],10
same,"Plant response rating, Corn",corn; [4],60
same,Corn plant response rating,corn; [7],50
same,Corn plant response rating,corn; [5],80
same,"Plant response rating, Corn",corn; [6],80
same,"Plant response rating (scale of 0 to 100), Corn","corn; Preemergence, 250 g ai/ha",85
same,"Plant response rating, Nutsedge, Yellow","nutsedge, yellow; [1]",0
same,"Plant response rating, Nutsedge, Yellow","nutsedge, yellow; [2]",0
same,"Plant response rating, Nutsedge, Yellow","nutsedge, yellow; [3]",0
same,"Plant response rating, Nutsedge, Yellow","nutsedge, yellow; [4]",0
same,"Nutsedge, Yellow plant response rating","nutsedge, yellow; [7]",0
same,"Nutsedge, Yellow plant response rating","nutsedge, yellow; [5]",0
same,"Plant response rating, Nutsedge, Yellow","nutsedge, yellow; [6]",20
same,"Plant response rating (scale of 0 to 100), Nutsedge, Yellow","nutsedge, yellow; Preemergence, 250 g ai/ha",20
same,"Plant response rating, Soybean",soybean; [1],0
same,"Plant response rating, Soybean",soybean; [2],0
same,"Plant response rating, Soybean",soybean; [3],0
same,"Plant response rating, Soybean",soybean; [4],15
same,Soybean plant response rating,soybean; [5],0
same,"Plant response rating, Soybean",soybean; [6],0
same,"Plant response rating (scale of 0 to 100), Soybean","soybean; Preemergence, 250 g ai/ha",0
same,"Plant response rating, Barnyardgrass",barnyardgrass,70
CN1CC(c2ccc(F)c(F)c2)C(C(=O)Nc2ccccc2F)C1=O (centres unmarked) [Compound 302],"Plant response rating, Sedge, Umbrella","sedge, umbrella",0
same,"Plant response rating, Ryegrass, Italian","ryegrass, Italian; [1]",0
same,"Plant response rating, Ryegrass, Italian","ryegrass, Italian; [2]",0
same,"Plant response rating, Ryegrass, Italian","ryegrass, Italian; [3]",0
same,"Plant response rating, Ryegrass, Italian","ryegrass, Italian; [4]",0
same,"Ryegrass, Italian plant response rating","ryegrass, Italian; [7]",0
same,"Ryegrass, Italian plant response rating","ryegrass, Italian; [5]",0
same,"Plant response rating, Ryegrass, Italian","ryegrass, Italian; [10]",5
same,"Plant response rating (scale of 0 to 100), Ryegrass, Italian","ryegrass, Italian; Preemergence, 250 g ai/ha",40
same,"Plant response rating, Johnsongrass",johnsongrass; [1],0
same,"Plant response rating, Johnsongrass",johnsongrass; [2],0
same,"Plant response rating, Johnsongrass",johnsongrass; [3],0
same,"Plant response rating, Johnsongrass",johnsongrass; [4],10
same,Johnsongrass plant response rating,johnsongrass; [7],0
same,Johnsongrass plant response rating,johnsongrass; [5],15
same,"Plant response rating, Johnsongrass",johnsongrass; [10],45
same,"Plant response rating (scale of 0 to 100), Johnsongrass","johnsongrass; Preemergence, 250 g ai/ha",65
same,"Plant response rating, Rice",rice,0
same,"Plant response rating, Oilseed Rape",oilseed rape; [1],0
same,"Plant response rating, Oilseed Rape",oilseed rape; [2],0
same,"Plant response rating, Oilseed Rape",oilseed rape; [3],40
same,"Plant response rating, Oilseed Rape",oilseed rape; [4],0
same,Oilseed Rape plant response rating,oilseed rape; [7],0
same,Oilseed Rape plant response rating,oilseed rape; [5],0
same,"Plant response rating, Oilseed Rape",oilseed rape; [10],0
same,"Plant response rating (scale of 0 to 100), Oilseed Rape","oilseed rape; Preemergence, 250 g ai/ha",10
same,"Plant response rating, Pigweed",pigweed; [1],15
same,"Plant response rating, Pigweed",pigweed; [2],20
same,"Plant response rating, Pigweed",pigweed; [3],20
same,"Plant response rating, Pigweed",pigweed; [4],30
same,Pigweed plant response rating,pigweed; [7],0
same,Pigweed plant response rating,pigweed; [5],20
same,"Plant response rating, Pigweed",pigweed; [10],25
same,"Plant response rating (scale of 0 to 100), Pigweed","pigweed; Preemergence, 250 g ai/ha",0
same,"Plant response rating, Ducksalad",ducksalad,98
same,"Plant response rating, Wheat",wheat; [8],0
same,"Plant response rating, Wheat",wheat; [9],50
same,"Plant response rating, Ragweed",ragweed; [1],10
same,"Plant response rating, Ragweed",ragweed; [2],20
same,"Plant response rating, Ragweed",ragweed; [3],20
same,"Plant response rating, Ragweed",ragweed; [4],55
same,Ragweed plant response rating,ragweed; [7],35
same,Ragweed plant response rating,ragweed; [5],5
same,"Plant response rating, Ragweed",ragweed; [10],5
same,"Plant response rating (scale of 0 to 100), Ragweed","ragweed; Preemergence, 250 g ai/ha",10
same,"Plant response rating, Corn",corn; [1],0
same,"Plant response rating, Corn",corn; [2],0
same,"Plant response rating, Corn",corn; [3],0
same,"Plant response rating, Corn",corn; [4],0
same,Corn plant response rating,corn; [7],0
same,Corn plant response rating,corn; [5],0
same,"Plant response rating, Corn",corn; [10],0
same,"Plant response rating (scale of 0 to 100), Corn","corn; Preemergence, 250 g ai/ha",50
same,"Plant response rating, Nutsedge, Yellow","nutsedge, yellow; [1]",0
same,"Plant response rating, Nutsedge, Yellow","nutsedge, yellow; [2]",0
same,"Plant response rating, Nutsedge, Yellow","nutsedge, yellow; [3]",0
same,"Plant response rating, Nutsedge, Yellow","nutsedge, yellow; [4]",20
same,"Nutsedge, Yellow plant response rating","nutsedge, yellow; [7]",0
same,"Nutsedge, Yellow plant response rating","nutsedge, yellow; [5]",0
same,"Plant response rating, Nutsedge, Yellow","nutsedge, yellow; [10]",0
same,"Plant response rating (scale of 0 to 100), Nutsedge, Yellow","nutsedge, yellow; Preemergence, 250 g ai/ha",10
same,"Plant response rating, Soybean",soybean; [1],0
same,"Plant response rating, Soybean",soybean; [2],0
same,"Plant response rating, Soybean",soybean; [3],0
same,"Plant response rating, Soybean",soybean; [4],65
same,Soybean plant response rating,soybean; [7],0
same,Soybean plant response rating,soybean; [5],30
same,"Plant response rating, Soybean",soybean; [10],0
same,"Plant response rating (scale of 0 to 100), Soybean","soybean; Preemergence, 250 g ai/ha",0
same,"Plant response rating, Barnyardgrass",barnyardgrass,80
